Values joined by “and” are separate entries in the source; they are usually repeats but may differ in a detail not shown here. Identical values can stand only once. Numbers after ± are expanded uncertainties.
Conditions: Gas, Buoyancy - hydrostatic balance with magnetic suspension - two sinkers

N#N [nitrogen]
mass density (250 K, 4032 kPa): 55.8107 ± 0.04 kg/m3 [middle of 5 runs]
mass density (250 K, 7922 kPa): 111.201 ± 0.16 kg/m3
mass density (250 K, 7922.1 kPa): 111.201 ± 0.16 kg/m3
mass density (250 K, 11944 kPa): 167.531 ± 0.35 kg/m3 and 167.53 ± 0.35 kg/m3
mass density (250 K, 15945 kPa): 220.078 ± 0.59 kg/m3 and 220.076 ± 0.59 kg/m3
mass density (250 K, 15946 kPa): 220.079 ± 0.59 kg/m3
mass density (250 K, 19672 kPa): 264.436 ± 0.85 kg/m3 [middle of 5 runs]
mass density (250 K, 23918 kPa): 309.033 ± 1.2 kg/m3 and 309.035 ± 1.2 kg/m3 and 309.038 ± 1.2 kg/m3
mass density (250 K, 23919 kPa): 309.043 ± 1.2 kg/m3
mass density (250 K, 23920 kPa): 309.056 ± 1.2 kg/m3
mass density (250 K, 23921 kPa): 309.062 ± 1.2 kg/m3
mass density (250 K, 27922 kPa): 345.621 ± 1.4 kg/m3 [middle of 4 runs]
mass density (250 K, 27923 kPa): 345.629 ± 1.4 kg/m3 and 345.627 ± 1.4 kg/m3
mass density (250 K, 31914 kPa): 377.498 ± 1.7 kg/m3 and 377.5 ± 1.7 kg/m3
mass density (250 K, 31915 kPa): 377.505 ± 1.7 kg/m3 and 377.504 ± 1.7 kg/m3
mass density (250 K, 31916 kPa): 377.516 ± 1.7 kg/m3 and 377.513 ± 1.7 kg/m3
mass density (273.16 K, 3969.2 kPa): 49.6242 ± 0.033 kg/m3 [middle of 4 runs]
mass density (273.16 K, 3969.3 kPa): 49.6242 ± 0.033 kg/m3
mass density (273.16 K, 6172.5 kPa): 77.4431 ± 0.076 kg/m3 and 77.4438 ± 0.076 kg/m3 and 77.4433 ± 0.076 kg/m3
mass density (273.16 K, 6172.6 kPa): 77.4441 ± 0.076 kg/m3 and 77.4442 ± 0.076 kg/m3
mass density (273.16 K, 8165.1 kPa): 102.478 ± 0.14 kg/m3 and 102.48 ± 0.14 kg/m3
mass density (273.16 K, 8165.2 kPa): 102.48 ± 0.14 kg/m3 and 102.479 ± 0.14 kg/m3
mass density (273.16 K, 12168 kPa): 151.567 ± 0.29 kg/m3 [middle of 5 runs]
mass density (273.16 K, 16376 kPa): 200.13 ± 0.5 kg/m3 [middle of 5 runs]
mass density (273.16 K, 20308 kPa): 241.736 ± 0.72 kg/m3 and 241.739 ± 0.72 kg/m3
mass density (273.16 K, 20309 kPa): 241.746 ± 0.72 kg/m3 and 241.745 ± 0.72 kg/m3 and 241.743 ± 0.72 kg/m3
mass density (273.16 K, 24524 kPa): 281.91 ± 0.98 kg/m3
mass density (273.16 K, 24525 kPa): 281.913 ± 0.98 kg/m3 and 281.915 ± 0.98 kg/m3
mass density (273.16 K, 24526 kPa): 281.922 ± 0.98 kg/m3 and 281.921 ± 0.98 kg/m3
mass density (273.16 K, 28792 kPa): 318.055 ± 1.2 kg/m3
mass density (273.16 K, 28793 kPa): 318.057 ± 1.2 kg/m3 and 318.058 ± 1.2 kg/m3
mass density (273.16 K, 28794 kPa): 318.067 ± 1.2 kg/m3 and 318.065 ± 1.2 kg/m3
mass density (273.16 K, 33963 kPa): 356.391 ± 1.6 kg/m3
mass density (273.16 K, 33964 kPa): 356.402 ± 1.6 kg/m3 and 356.397 ± 1.6 kg/m3
mass density (273.16 K, 33965 kPa): 356.407 ± 1.6 kg/m3
mass density (273.16 K, 33966 kPa): 356.413 ± 1.6 kg/m3
mass density (293.14 K, 99.9 kPa): 1.1487 ± 0.0034 kg/m3 [middle of 4 runs]
mass density (293.14 K, 199.8 kPa): 2.2978 ± 0.0035 kg/m3 and 2.2977 ± 0.0035 kg/m3 and 2.2976 ± 0.0035 kg/m3
mass density (293.14 K, 299.7 kPa): 3.447 ± 0.0036 kg/m3 and 3.4472 ± 0.0036 kg/m3 and 3.4473 ± 0.0036 kg/m3
mass density (293.14 K, 499.5 kPa): 5.7475 ± 0.0038 kg/m3 and 5.7477 ± 0.0038 kg/m3 and 5.7476 ± 0.0038 kg/m3
mass density (293.14 K, 749.2 kPa): 8.6261 ± 0.004 kg/m3 and 8.626 ± 0.004 kg/m3
mass density (293.14 K, 749.3 kPa): 8.6261 ± 0.004 kg/m3
mass density (293.14 K, 999 kPa): 11.5072 ± 0.0045 kg/m3 [middle of 5 runs]
mass density (293.14 K, 1498.5 kPa): 17.2762 ± 0.011 kg/m3 [middle of 6 runs]
mass density (293.14 K, 1998 kPa): 23.0541 ± 0.012 kg/m3 and 23.0539 ± 0.012 kg/m3
mass density (293.14 K, 2997.1 kPa): 34.6233 ± 0.019 kg/m3 and 34.6235 ± 0.019 kg/m3 and 34.6236 ± 0.019 kg/m3
mass density (293.14 K, 3996.1 kPa): 46.1976 ± 0.029 kg/m3 [middle of 5 runs]
mass density (293.14 K, 4995.1 kPa): 57.7592 ± 0.044 kg/m3
mass density (293.14 K, 4995.2 kPa): 57.7597 ± 0.044 kg/m3 and 57.7599 ± 0.044 kg/m3
mass density (293.14 K, 5994.2 kPa): 69.2908 ± 0.063 kg/m3 and 69.291 ± 0.063 kg/m3 and 69.2909 ± 0.063 kg/m3
mass density (293.14 K, 5994.3 kPa): 69.2914 ± 0.063 kg/m3 and 69.2915 ± 0.063 kg/m3
mass density (293.15 K, 4004.8 kPa): 46.2934 ± 0.03 kg/m3 [middle of 6 runs]
mass density (293.15 K, 4004.9 kPa): 46.2937 ± 0.03 kg/m3
mass density (293.15 K, 5964.9 kPa): 68.9512 ± 0.062 kg/m3 [middle of 5 runs]
mass density (293.15 K, 7948.6 kPa): 91.6869 ± 0.12 kg/m3 [middle of 4 runs]
mass density (293.15 K, 7948.8 kPa): 91.689 ± 0.12 kg/m3 and 91.6881 ± 0.12 kg/m3
mass density (293.15 K, 11980 kPa): 136.716 ± 0.24 kg/m3 [middle of 7 runs]
mass density (293.15 K, 15954 kPa): 178.78 ± 0.41 kg/m3
mass density (293.15 K, 15955 kPa): 178.782 ± 0.41 kg/m3 [middle of 7 runs]
mass density (293.15 K, 19567 kPa): 214.452 ± 0.58 kg/m3 and 214.453 ± 0.58 kg/m3
mass density (293.15 K, 19568 kPa): 214.457 ± 0.58 kg/m3
mass density (293.15 K, 24175 kPa): 256.042 ± 0.83 kg/m3
mass density (293.15 K, 24176 kPa): 256.052 ± 0.83 kg/m3 [middle of 4 runs]
mass density (293.15 K, 28412 kPa): 290.447 ± 1.1 kg/m3 [middle of 4 runs]
mass density (293.15 K, 28413 kPa): 290.455 ± 1.1 kg/m3 and 290.453 ± 1.1 kg/m3
mass density (293.15 K, 32144 kPa): 317.902 ± 1.3 kg/m3
mass density (293.15 K, 32145 kPa): 317.909 ± 1.3 kg/m3 and 317.905 ± 1.3 kg/m3
mass density (293.15 K, 32146 kPa): 317.912 ± 1.3 kg/m3
mass density (293.15 K, 32147 kPa): 317.922 ± 1.3 kg/m3 and 317.917 ± 1.3 kg/m3
mass density (293.15 K, 32148 kPa): 317.926 ± 1.3 kg/m3
mass density (320 K, 4775.8 kPa): 50.1489 ± 0.035 kg/m3 and 50.1482 ± 0.035 kg/m3 and 50.1481 ± 0.035 kg/m3
mass density (320 K, 4775.9 kPa): 50.1492 ± 0.035 kg/m3 and 50.1493 ± 0.035 kg/m3 and 50.149 ± 0.035 kg/m3
mass density (320 K, 10135 kPa): 104.999 ± 0.15 kg/m3 and 105.001 ± 0.15 kg/m3 and 105.002 ± 0.15 kg/m3
mass density (320 K, 20210 kPa): 198.799 ± 0.51 kg/m3 [middle of 6 runs]
mass density (339.98 K, 499.5 kPa): 4.9482 ± 0.0035 kg/m3 and 4.9481 ± 0.0035 kg/m3 and 4.948 ± 0.0035 kg/m3
mass density (339.98 K, 999 kPa): 9.8915 ± 0.004 kg/m3 and 9.8916 ± 0.004 kg/m3
mass density (339.98 K, 1998 kPa): 19.7585 ± 0.011 kg/m3 and 19.7583 ± 0.011 kg/m3 and 19.7584 ± 0.011 kg/m3
mass density (339.98 K, 3996 kPa): 39.3819 ± 0.023 kg/m3 [middle of 4 runs]
mass density (339.98 K, 5994.1 kPa): 58.7959 ± 0.048 kg/m3 and 58.796 ± 0.048 kg/m3
mass density (339.99 K, 5081.9 kPa): 49.9596 ± 0.035 kg/m3
mass density (339.99 K, 5082 kPa): 49.9602 ± 0.035 kg/m3 and 49.9596 ± 0.035 kg/m3
mass density (339.99 K, 5082.1 kPa): 49.9616 ± 0.035 kg/m3
mass density (339.99 K, 21784 kPa): 198.014 ± 0.52 kg/m3
mass density (340 K, 5082 kPa): 49.96 ± 0.035 kg/m3
mass density (340 K, 10840 kPa): 104.588 ± 0.15 kg/m3 and 104.589 ± 0.15 kg/m3
mass density (340 K, 21784 kPa): 198.008 ± 0.52 kg/m3 [middle of 5 runs]
mass density (340.01 K, 3874.6 kPa): 38.1897 ± 0.022 kg/m3 [middle of 6 runs]
mass density (340.01 K, 5932.3 kPa): 58.1965 ± 0.047 kg/m3 and 58.1955 ± 0.047 kg/m3
mass density (340.01 K, 5932.4 kPa): 58.1962 ± 0.047 kg/m3
mass density (340.01 K, 7789.6 kPa): 75.9992 ± 0.09 kg/m3
mass density (340.01 K, 7789.7 kPa): 76.0004 ± 0.09 kg/m3 [middle of 5 runs]

— the NIST ThermoML archive (doi:10.1016/j.jct.2006.09.012)
